In one data set the test system is ER/Nf-kB. Put plainly: ER/NF-κB luciferase reporter assay in Ad5-wt-ER infected HAECT-1 cells (IL-1β induced). The class given is cell-based, human. The note with it: for ER/Nf-kB Efficacy: relative to maximal inhibition observed with E2. Here is the method:
(§1) After four hours, cells were washed with EBM-BSA and incubated overnight in the same medium. […] After two hours, cells were washed and incubated at 34° C. for 1 hour. […] Control (no ER infection) cells were processed as above without Ad5-wt-hERα virus infection. […] Cells were subsequently washed with 300 μl of Dulbecco's phosphate buffered saline and lysed in 50 μl of Cell Culture Lysis Reagent (Promega). Luciferase was determined on a Wallac Victor^2 Luminometer (Gaithersburg, Md.) using 10 μl of lysate and mixing with 100 lμof Promega Luciferase Assay reagent. […] For IC50 and EC50 calculations, mean IL-6, luciferase or CK values versus log10 of the compound concentration were fitted to a four parameter logistic equation. The IC50/EC50 value, ‘Hill slope’, upper and lower limits of the curve were iteratively estimated.
In general terms: A reporter such as luciferase makes a cellular process visible.

The next data set deals with creatine kinase. As to the kind of experiment: Creatine kinase assay in Ad5-wt-ER infected HAECT-1 cells. The class given is cell-based, human. Conditions: for CK Efficacy: relative to maximal stimulation observed with E2. The method, then: as §1

Read-outs that look alike come from different tables or passages of the source.

As usually defined, the IC50 is the concentration that gives 50% inhibition. As a reminder, the melting point is the temperature of the solid-liquid transition.

As to `CCC1c2cccn2-c2cc(F)c(F)cc2N1S(=O)(=O)c1ccc(O)c(C)c1` (stereo not drawn) [Example 5, 4-[(4-ethyl-7,8-difluoropyrrolo[1,2-a]quinoxalin-5-(4H)-yl)sulfonyl]-2-methylphenol], in the data set on ER/Nf-kB, the IC50 was 82 nM and the “ER/Nf-kB Efficacy” value is 99%. Further, the “CK Efficacy” value with creatine kinase was 37%.
Taken in the same sequence, the figures for `CCC1c2cccn2-c2cc(F)c(F)cc2N1S(=O)(=O)c1ccc(O)cc1` (stereo not drawn) [Example 7, 4-[(4-ethyl-7,8-difluoropyrrolo[1,2-a]quinoxalin-5-(4H)-yl)sulfonyl]phenol] were 26 nM, 113% and 37%.
Taken in the same sequence, the figures for `CC1c2cccn2-c2cc(F)c(F)cc2N1S(=O)(=O)c1ccc(O)cc1` (stereo not drawn) [Example 10, 4-[(7,8-difluoro-4-methylpyrrolo[1,2-a]quinoxalin-5-(4H)-yl)sulfonyl]phenol] were 14 nM, 97% and 39%.
On the same counts, the results for `CCC1c2cccn2-c2ccc(F)cc2N1S(=O)(=O)c1ccc(O)c(C)c1` (stereo not drawn) [Example 19, 4-[(4-ethyl-7-fluoropyrrolo[1,2-a]quinoxalin-5-(4H)-yl)sulfonyl]-2-methylphenol] are 34 nM, 94% and 52%.
For `CCC1c2cccn2-c2ccc(F)cc2N1S(=O)(=O)c1ccc(O)cc1` (stereo not drawn) [Example 21, 4-[(4-ethyl-7-fluoropyrrolo[1,2-a]quinoxalin-5-(4H)-yl)sulfonyl]phenol], in the data set with ER/Nf-kB, the IC50 was 71 nM and the “ER/Nf-kB Efficacy” value is listed as 97%. Besides, in the data set with creatine kinase, the “CK Efficacy” value turned out to be 38%.
For `CCC1c2ccc(C=O)n2-c2ccc(F)cc2N1S(=O)(=O)c1ccc(O)c(C)c1` (stereo not drawn) [Example 25, 4-ethyl-7-fluoro-5-[(4-hydroxy-3-methylphenyl)sulfonyl]-4,5-dihydropyrrolo[1,2-a]quinoxaline-1-carboxaldehyde], the melting point was 192 to 194 °C.
Regarding `CCC1c2ccc(F)n2-c2ccc(F)cc2N1S(=O)(=O)c1ccc(O)c(C)c1` (stereo not drawn) [Example 28, 4-[(4-ethyl-1,7-difluoropyrrolo[1,2-a]quinoxalin-5-(4H)-yl)sulfonyl]-2-methylphenol], in the data set on ER/Nf-kB, the IC50 stood at 52 nM and the “ER/Nf-kB Efficacy” value is recorded as 105%. Besides, the “CK Efficacy” value in the data set on creatine kinase was 45%.
On the same counts, the results for `CCC1c2ccc(Br)n2-c2ccc(F)cc2N1S(=O)(=O)c1ccc(O)c(C)c1` (stereo not drawn) [Example 29, 4-[(1-bromo-4-ethyl-7-fluoropyrrolo[1,2-a]quinoxalin-5-(4H)-yl)sulfonyl]-2-methylphenol] are 587 nM, 100% and 28%.
Regarding `CCC1c2cccn2-c2ccc(F)cc2N1S(=O)(=O)c1ccc(O)c(Cl)c1` (stereo not drawn) [Example 31, 2-chloro-4-[(4-ethyl-7-fluoropyrrolo[1,2-a]quinoxalin-5-(4H)-yl)sulfonyl]phenol], in the data set with ER/Nf-kB, the IC50 came to 364 nM and the “ER/Nf-kB Efficacy” value is 104%.
With `CCC1c2ccc(C(N)=O)n2-c2ccc(F)cc2N1S(=O)(=O)c1ccc(O)cc1` (stereo not drawn) [Example 36, 4-ethyl-7-fluoro-5-[(4-hydroxyphenyl)sulfonyl]-4,5-dihydropyrrolo[1,2-a]quinoxaline-1-carboxamide], the melting point is 168 to 170 °C (dec.).
`CCC1c2cccn2-c2ccc(F)cc2N1S(=O)(=O)c1cc(C)c(O)c(C)c1` (stereo not drawn) [Example 38, 4-[(4-ethyl-7-fluoropyrrolo[1,2-a]quinoxalin-5-(4H)-yl)sulfonyl]-2,6-dimethylphenol]: in the data set on ER/Nf-kB, the IC50 turned out to be 201 nM and the “ER/Nf-kB Efficacy” value is 109%. Further, the “CK Efficacy” value with creatine kinase stood at 38%.
For `CC1(C)c2cccn2-c2ccc(Br)cc2N1S(=O)(=O)c1ccc(O)cc1` [Example 41, 4-[(7-bromo-4,4-dimethylpyrrolo[1,2-a]quinoxalin-5-(4H)-yl)sulfonyl]phenol], in the data set with ER/Nf-kB, half-maximal inhibition (IC50) required 217 nM and the “ER/Nf-kB Efficacy” value is 109%. Moreover, the “CK Efficacy” value in the data set with creatine kinase is listed as 35%.
Taken in the same sequence, the figures for `CCC1c2cccn2-c2ccc(Br)cc2N1S(=O)(=O)c1ccc(O)cc1` (stereo not drawn) [Example 44, 4-[(7-bromo-4-ethylpyrrolo[1,2-a]quinoxalin-5-(4H)-yl)sulfonyl]phenol] were 42 nM, 97% and 51%.
On the same counts, the results for `CCC1c2ccc(F)n2-c2ccc(Br)cc2N1S(=O)(=O)c1ccc(O)cc1` (stereo not drawn) [Example 45, 4-[(7-bromo-4-ethyl-1-fluoropyrrolo[1,2-a]quinoxalin-5-(4H)-yl)sulfonyl]phenol] are 12 nM, 95% and 53%.
On the same counts, the results for `CCC1c2cccn2-c2ccc(Br)cc2N1S(=O)(=O)c1ccc(O)c(C)c1` (stereo not drawn) [Example 46, 4-[(7-bromo-4-ethylpyrrolo[1,2-a]quinoxalin-5-(4H)-yl)sulfonyl]-2-methylphenol] are 62 nM, 108% and 43%.
Regarding `CC1c2cccn2-c2ccc(F)cc2N1S(=O)(=O)c1ccc(O)cc1` (stereo not drawn) [Example 49, 4-[(7-fluoro-4-methylpyrrolo[1,2-a]quinoxalin-5-(4H)-yl)sulfonyl]phenol], in the data set on ER/Nf-kB, it took 67 nM to reach half-maximal inhibition (IC50) and the “ER/Nf-kB Efficacy” value is recorded as 85%. Moreover, the “CK Efficacy” value with creatine kinase is 19%.
For the molecule `Cc1cc(S(=O)(=O)N2c3cc(F)ccc3-n3cccc3C2C)ccc1O` (stereo not drawn) [Example 51, 4-[(7-fluoro-4-methylpyrrolo[1,2-a]quinoxalin-5-(4H)-yl)sulfonyl]-2-methylphenol], in the data set on ER/Nf-kB, it took 155 nM to reach half-maximal inhibition (IC50) and the “ER/Nf-kB Efficacy” value turned out to be 66%.
On the same counts, the results for `CC1c2cccn2-c2ccc(Br)cc2N1S(=O)(=O)c1ccc(O)cc1` (stereo not drawn) [Example 52, 4-[(7-bromo-4-methylpyrrolo[1,2-a]quinoxalin-5-(4H)-yl)sulfonyl]phenol] are 11 nM and 100%.
For the molecule `CCC1c2cccn2-c2ccc(C(F)(F)F)cc2N1S(=O)(=O)c1ccc(O)cc1` (stereo not drawn) [Example 56, 4-{[4-ethyl-7-(trifluoromethyl)pyrrolo[1,2-a]quinoxalin-5-(4H)-yl]sulfonyl}phenol], in the data set on ER/Nf-kB, the IC50 is 79 nM and the “ER/Nf-kB Efficacy” value is 107%.
`CCC1c2cccn2-c2ccc(C(F)(F)F)cc2N1S(=O)(=O)c1ccc(O)c(C)c1` (stereo not drawn) [Example 58, 4-{[4-ethyl-7-(trifluoromethyl)pyrrolo[1,2-a]quinoxalin-5-(4H)-yl]sulfonyl}-2-methylphenol]: in the data set on ER/Nf-kB, the IC50 is 85 nM and the “ER/Nf-kB Efficacy” value is on record as 132%. The “CK Efficacy” value in the data set on creatine kinase came out at 42%.
On the same counts, the results for `CCC1c2cccn2-c2ccc(C(F)(F)F)cc2N1S(=O)(=O)c1ccc(O)c(Cl)c1` (stereo not drawn) [Example 61, 2-chloro-4-{[4-ethyl-7-(trifluoromethyl)pyrrolo[1,2-a]quinoxalin-5-(4H)-yl]sulfonyl}phenol] are 10000 nM, 69% and 15%.
Regarding `CCC1c2cccn2-c2ccccc2N1S(=O)(=O)c1ccc(O)c(C)c1` (stereo not drawn) [Example 64, 4-[(4-ethylpyrrolo[1,2-a]quinoxalin-5-(4H)-yl)sulfonyl]-2-methylphenol], in the data set with ER/Nf-kB, the IC50 turned out to be 202 nM and the “ER/Nf-kB Efficacy” value came to 89%.
Taken in the same sequence, the figures for `CCOC(=O)Oc1ccc(S(=O)(=O)N2c3c(C)cccc3-n3cccc3C2CC)cc1` (stereo not drawn) [Example 66, ethyl 4-[(4-ethyl-6-methylpyrrolo[1,2-a]quinoxalin-5-(4H)-yl)sulfonyl]phenyl carbonate] were 320 nM and 98%.
As to `CCC1c2cccn2-c2ccc(Cl)cc2N1S(=O)(=O)c1ccc(O)c(C)c1` (stereo not drawn) [Example 68A, 4-[(7-chloro-4-ethylpyrrolo[1,2-a]quinoxalin-5-(4H)-yl)sulfonyl]-2-methylphenol], in the data set with ER/Nf-kB, inhibition was half-maximal at 93 nM (IC50) and the “ER/Nf-kB Efficacy” value turned out to be 105%. In addition, the “CK Efficacy” value in the data set on creatine kinase is on record as 49%.
On the same counts, the results for `CCOC(=O)Oc1ccc(S(=O)(=O)N2c3ccc(Cl)cc3-n3cccc3C2CC)cc1` (stereo not drawn) [Example 70, 4-[(8-chloro-4-ethylpyrrolo[1,2-a]quinoxalin-5-(4H)-yl)sulfonyl]phenyl ethyl carbonate] are 150 nM, 98% and 45%.
Take `CCC1c2cccn2-c2cc(Cl)ccc2N1S(=O)(=O)c1ccc(O)cc1` (stereo not drawn) [Example 71, 4-[(8-chloro-4-ethylpyrrolo[1,2-a]quinoxalin-5-(4H)-yl)sulfonyl]phenol]: in the data set on ER/Nf-kB, half-maximal inhibition (IC50) required 175 nM and the “ER/Nf-kB Efficacy” value is 101%. The “CK Efficacy” value with creatine kinase was 34%.
Taken in the same sequence, the figures for `CCC1c2cccn2-c2cc(OC)c(F)cc2N1S(=O)(=O)c1ccc(O)cc1` (stereo not drawn) [Example 75, 4-[(4-ethyl-7-fluoro-8-methoxypyrrolo[1,2-a]quinoxalin-5-(4H)-yl)sulfonyl]phenol] were 36 nM, 84% and 46%.
Regarding `C[C@]12CC[C@@H]3c4ccc(O)cc4CC[C@H]3[C@@H]1CC[C@@H]2O` [Example E2, 17β-estradiol, reference compound], half-maximal inhibition in the data set with ER/Nf-kB (Homo sapiens, HAECT1) (IC50) was put at 1.7 nM. Besides, the “ER/Nf-kB Efficacy” value in the data set on ER/Nf-kB came out at 100%. For the same molecule, the EC50 in the data set on creatine kinase (Homo sapiens, HAECT1, CK stimulation, N/O = activity not observed at concentrations tested, read-out: CK IC50) came out at 5.8 nM. Besides, the Emax with creatine kinase (Homo sapiens, HAECT1, relative to maximal stimulation observed with E2, read-out: CK Efficacy) was 100%.

Values taken from patent US7563793B2, “Pyrrolo[1,2-a]quinoxalin-5-(4H)-yl)sulfonyls and carbonyls and their use as estrogenic agents” (Wyeth, priority 2004, dated 2009).
